Some results are limits rather than exact numbers.

One series concerns the target T1, recombinant human GST-SYK (Homo sapiens, UniProt P43405).
T1 construct: purchased Carna Biosciences 08-176
The series can be described thus: Homogeneous Time-Resolved Fluorescence (HTRF) assay for the recombinant human SYK enzyme. In kind it is biochemical. To be noted: recombinant human GST-SYK 5 pM, ATP 25 μM, 10-dose titration; read-out: rhSYK Activity (IC50). An outline of the steps:
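GST-hSYK (5 pM) preincubated 10 min at room temperature with inhibitor (0.1% DMSO) in Tris pH 7.5 buffer; reaction started with 250 nM biotinylated peptide, 5 mM Mg and 25 μM ATP, 45 min. EDTA quench with Eu-anti-phosphotyrosine antibody and SA-APC; HTRF read after 30 min.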
Background: In TR-FRET formats the signal depends on donor and acceptor labels being close together.
For `OCCC1(c2ccc(Cl)cc2)CCN(c2ncc(-c3cccc(Nc4nccc(C(F)(F)F)n4)c3)s2)C1` (stereo not shown) [Example 160], the IC50 (in general, the concentration at which inhibition is half-maximal) lay in the range of 1 to 10 µM. As for `OC1CCN(c2ncc(-c3cccc(Nc4nccc(C(F)(F)F)n4)c3)s2)CC1` [Example 129], the IC50 was no more than 0.1 µM. Still for that read-out and setting: for `Cc1cc(Nc2nccc(C(F)(F)F)n2)cc(-c2cnc(NCCc3c[nH]c4ccccc34)s2)c1` [Example 112] the value was no more than 0.1 µM.

With `Cc1cc(Nc2nccc(C(F)(F)F)n2)cc(-c2cnc(NC(C)c3cccnc3)s2)c1` (stereo not shown) [Example 99], the IC50 was no more than 0.1 µM. On to `CN(CCO)c1ncc(-c2cccc(Nc3nccc(C(F)(F)F)n3)c2)s1` [Example 4], for which the IC50 is no more than 0.1 µM.

Consider `Cc1cc(Nc2nccc(C(F)(F)F)n2)cc(-c2cnc(NCc3cnn(C)c3)s2)c1` [Example 100], for which the IC50 is no more than 0.1 µM. In the case of `Cc1cc(Nc2ncc(Cl)c(C)n2)cc(-c2cnc(N3CCCNC(=O)C3)s2)c1` [Example 211, 4-(5-{3-[(5-Chloro-4-methylpyrimidin-2-yl)amino]-5-methylphenyl}-1,3-thiazol-2-yl)-1,4-diazepan-2-one], the IC50 is no more than 0.1 µM. Still for that read-out and setting: for `O[C@@H]1CN(c2ncc(-c3cccc(Nc4nccc(C(F)(F)F)n4)c3)s2)C[C@@H]1O` [Example 157] the value was no more than 0.1 µM; for `Cc1ccnc(Nc2cccc(-c3cnc(N4CCC(C(=O)O)CC4)s3)c2)n1` [Example 193, 1-(5-{3-[(4-methylpyrimidin-2-yl)amino]phenyl}-1,3-thiazol-2-yl)piperidine-4-carboxylic acid], 0.1 to 1 µM. The same measure, in the same setting: the value for `Cc1cc(CNc2ncc(-c3cccc(Nc4nccc(C(F)(F)F)n4)c3)s2)no1` [Example 83] was no more than 0.1 µM; that for `FC(F)(F)c1ccnc(Nc2cccc(-c3cnc(NCC4CCOCC4)s3)c2)n1` [Example 61] was no more than 0.1 µM; that for `O=C(COC1CCN(c2ncc(-c3cccc(Nc4nccc(C(F)(F)F)n4)c3)s2)CC1)NC1CC1` [Example 136] was 0.1 to 1 µM.

In the case of `CC(C)(CO)CNc1ncc(-c2cccc(Nc3nccc(C(F)(F)F)n3)c2)s1` [Example 16], the IC50 was no more than 0.1 µM. On the same count and under the same terms, for `COCCNc1ncc(-c2cccc(Nc3nccc(C(F)(F)F)n3)c2)s1` [Example 5] the value was no more than 0.1 µM; for `C=CCN(CC=C)c1ncc(-c2cccc(Nc3nccc(C(F)(F)F)n3)c2)s1` [Example 25], no more than 0.1 µM.

Turning to `Cc1cc(Nc2nccc(C(F)(F)F)n2)cc(-c2csc(N3CCC(O)CC3)n2)c1` [Example 225, 1-[4-(3-methyl-5-{[4-(trifluoromethyl)pyrimidin-2-yl]amino}phenyl)-1,3-thiazol-2-yl]piperidin-4-ol], the IC50 is 0.1 to 1 µM. Consider `CCc1ccnc(Nc2cc(C)cc(-c3cnc(N4CCCNC(=O)C4)s3)c2)n1` [Example 207], for which the IC50 is no more than 0.1 µM. Regarding `OCCOCCNc1ncc(-c2cccc(Nc3nccc(C(F)(F)F)n3)c2)s1` [Example 72], the 50% inhibitory concentration (IC50) was no more than 0.1 µM. For `Cc1cc(Nc2nccc(C(F)(F)F)n2)cc(-c2cnc(N(C)Cc3cnn(C)c3)s2)c1` [Example 101], the IC50 is no more than 0.1 µM. With `Cc1cc(Nc2nccc(C(F)(F)F)n2)cc(-c2cnc(N(C)CCO)s2)c1` [Example 27], the IC50 was no more than 0.1 µM. The same measure, in the same setting: for `Cc1cc(Nc2nccc(C(F)(F)F)n2)cc(-c2cnc(NCC(O)c3ccncc3)s2)c1` (stereo not shown) [Example 117] the value was 0.1 to 1 µM; for `Cc1cc(Nc2ncc(Cl)cn2)cc(-c2cnc(N3CCCNC(=O)C3)s2)c1` [Example 200, 4-(5-{3-[(5-chloropyrimidin-2-yl)amino]-5-methylphenyl}-1,3-thiazol-2-yl)-1,4-diazepan-2-one], no more than 0.1 µM.

Turning to `CC(CO)Nc1ncc(-c2cccc(Nc3nccc(C(F)(F)F)n3)c2)s1` (stereo not shown) [Example 32], the IC50 is no more than 0.1 µM.

With `CC(=O)Nc1cc(Nc2nccc(C(F)(F)F)n2)cc(-c2cnc(N(C)CCO)s2)c1` [Example 186], the IC50 was no more than 0.1 µM.

`O=C1CN(c2ncc(-c3cccc(Nc4nccc(C(F)(F)F)n4)c3)s2)CCN1` [Example 123]: the IC50 was 1 to 10 µM. On to `Cc1cc(Nc2nccc(C(C)C)n2)cc(-c2cnc(N3CCCNC(=O)C3)s2)c1` [Example 206], for which the IC50 is no more than 0.1 µM.

With `N[C@H]1CCN(c2ncc(-c3cccc(Nc4nccc(C(F)(F)F)n4)c3)s2)C1` [Example 163], the IC50 was no more than 0.1 µM. In the case of `Cn1cnc(CNc2ncc(-c3cccc(Nc4nccc(C(F)(F)F)n4)c3)s2)c1` [Example 81], the IC50 was no more than 0.1 µM. For the compound `CS(=O)(=O)Nc1ncc(-c2cccc(Nc3nccc(C(F)(F)F)n3)c2)s1` [Example 177], the IC50 was no more than 0.1 µM. As to `Cc1cc(Nc2nccc(C(F)(F)F)n2)cc(-c2cnc(NCCc3nccs3)s2)c1` [Example 109], the IC50 is no more than 0.1 µM. Consider `CCCCSc1ccnc(Nc2cc(C)cc(-c3cnc(N4CCCNC(=O)C4)s3)c2)n1` [Example 217, 4-[5-(3-{[4-(butylsulfanyl)pyrimidin-2-yl]amino}-5-methyphenyl)-1,3-thiazol-2-yl]-1,4-diazepan-2-one], for which the IC50 was no more than 0.1 µM. Turning to `CN(Cc1ccccn1)c1ncc(-c2cccc(Nc3nccc(C(F)(F)F)n3)c2)s1` [Example 33], the IC50 is no more than 0.1 µM. On to `Cc1cc(Nc2nccc(C(F)(F)F)n2)cc(-c2cnc(N3CCOC3=O)s2)c1` [Example 180], for which the IC50 is no more than 0.1 µM. Take `COc1ccc(CCNc2ncc(-c3cccc(Nc4nccc(C(F)(F)F)n4)c3)s2)cc1` [Example 54]: the IC50 was 0.1 to 1 µM. With `CCCC[C@@H](CO)Nc1ncc(-c2cccc(Nc3nccc(C(F)(F)F)n3)c2)s1` [Example 74], the IC50 was no more than 0.1 µM. As for `CC(Nc1ncc(-c2cccc(Nc3nccc(C(F)(F)F)n3)c2)s1)c1ccccc1` (stereo not shown) [Example 55], the IC50 is 0.1 to 1 µM. Same read-out and setting: the value for `O=C1CN(c2ncc(-c3cccc(Nc4nccc(C(F)(F)F)n4)c3)s2)CCCN1` [Example 166] was no more than 0.1 µM. Regarding `CSCCC(CO)Nc1ncc(-c2cccc(Nc3nccc(C(F)(F)F)n3)c2)s1` (stereo not shown) [Example 80], the IC50 is no more than 0.1 µM.

Regarding `FC(F)(F)c1ccnc(Nc2cccc(-c3cnc(NCc4c[nH]nc4-c4ccccc4)s3)c2)n1` [Example 78], the concentration for half-maximal inhibition (IC50) was 0.1 to 1 µM.

Consider `Cc1cc(Nc2nccc(C(F)(F)F)n2)cc(-c2cnc(NCc3cnsn3)s2)c1` [Example 105], for which the IC50 was no more than 0.1 µM.

The test system of a further series is allergic rhinitis.
Test: not given
To be noted: dosed intranasally, phase I/II study; cited from earlier work.
As for `Oc1cccc(Nc2ncc(F)c(Nc3cccc(O)c3)n2)c1` [Example R112], the clinical safety entry is reported as “safe across a range of indicators” and the “decrease in PGD2” value was “statistically significant decrease”.

In the next series the test system is allergic rhinitis.
Test: not given
Conditions: phase II clinical trial; cited from earlier work.
Regarding `Oc1cccc(Nc2ncc(F)c(Nc3cccc(O)c3)n2)c1` [Example R112], the efficacy versus placebo result is recorded as “lack of efficacy versus placebo”.

(Values after US8735417B2, “Aminopyrimidines as Syk inhibitors” (Merck Sharp & Dohme Corp., priority 2009, dated 2014).)
